Assays:
[1] = test system: RPMI-8226 cells vs CD34+ HSPCs derived from healthy bone marrow; assay: In vitro colony-forming assay, myeloma cells versus normal bone marrow CD34+ cells; type: cell-based, human; conditions: colonies scored on day 14
Procedure: In vitro colony-forming assays: Mononuclear cells derived from bone marrow or purified CD34+ cells from a healthy donor, cord blood, or MM cell RPMI-8226 were grown in semi-solid methylcellulose media (MethoCult™, H4435; STEMCELL Technologies) in the presence of indicated compounds and concentrations. A total of 10,000/mL normal bone marrow CD34+ cells and 1000/mL RPMI-8226 cells were plat-ed, and colonies were scored on day 14.

[2] = test system: myeloma cells (MM1.S, MM1.S.LUC, BTZ-resistant MM1.S.LUC); assay: ROS detection (carboxy-H2DCFDA); type: cell-based, human; conditions: 2.5 μM, peaking between 2-3 h
Procedure: ROS detection: MM1.S, MM1.S.LUC, and BTZ-resistant MM1.S.LUC cells were washed with DPBS and treated with 5 μM carboxy-H2DCFDA (Molecular Probes) for 45 min at 37° C. The cells were then washed 3 times in DPBS and followed by 2.5 μM CCF642-34 treatment up to 4 h. After the incubation, the cells were washed 3 times and the intracellular ROS was quantified (excitation=493 nm; […]) using a BioTek Synergy plate reader (BioTek Instruments, Inc., Winooski, VT, USA).

MM1.S cells = assay: Cell viability assay (CellTiter-Glo), MM1.S; type: cell-based, human; conditions: MM cells, in vitro cell culture
Procedure: Cell vi-ability and LD50 for inhibitors were measured in 96 well culture plates (2×10^4 cells/well) after 72 h of treatment using CellTiter-Glo® Luminescent Cell Viability Assay (Promega, Madison, WI, USA). (A) Cell survival assay with MM1.S.luc and BTZ-resistant MM1.S.luc cells. […] (C) Comparison of PDIA1 protein levels in MM1.S.luc and MM1.S.luc BTZ-resistant cells. Band intensity was calculated with Image Lab Version 5.2.1. (D) Cell survival assay with 5TGM1.luc and (E) BTZ-resistant 5TGM1.luc cells. (F) MM1.S cell line was exposed to CCF642-34, and BTZ for 72 h for synergistic drug combination test according to Chou and Talalay method. If the […] remained less than 1, the two drugs were determined as synergistic. […] The number of colony-forming units were plotted for each treatment.
Cell viability assay: Cell viability was measured in 96 well culture plates (2×10^4 cells/well) using CellTiter-Glo® Luminescent Cell Viability Assay (Promega, Madison, WI, USA) according to the manufacturer's protocol.

PDIA1 = PDIA1 (Homo sapiens, UniProt P07237); assay: PDIA1 activity assay, di-E-GSSG reduction (fluorescence); type: biochemical; parameters: His6 (6xHN, pET6xHN-N vector) (N); made in house; host or cells: Escherichia coli BL21 (DE3) NiCo; conditions: di-EGGS assay; read-out: inactivation constant, Kinact for PDIA1
Procedure: PDI activity: All PDI activity assays were performed using two different substrates, insulin and di-eosin-diglutathione (di-E-GSSG) as described earlier (Vatolin et al., Ibid) with brief modifications. PDIA1 (1 μM) was incubated for 1 h with varying concentrations of PDIA1 inhibitors 642 or 642-34 (0.1, 03, 1, 5, 10, or 20 μM) in 100 mM sodium phosphate pH 7.0, 2 mM EDTA, and 1% DMSO. Bovine insulin (100 μM) and DTT (1 mM) were added to initiate the reaction. Kinetic readings were taken every minute for 2 h at 650 nm absorbance using a BioTek Synergy plate reader (BioTek Instruments, Inc., Winooski, VT, USA). For highly sensitive fluorescence-based assays, di-E-GSSG as a pseudo substrate was utilized to access the activity of PDIA1. Raturi, A.; Mutus, B., Free. Radic. Biol. Med., 43, 62-70 (2007) Known concentrations of recombinant PDIA1 were mixed with 10 mM GSH and incubated at 37° C. for 30 min in 150 mM K2HPO4/KH2PO4 (pH 7.1) buffer solution. PDI inhibitor was added into the mixture and incubated for an additional 30 min at 37° C. […] Synergy H1 plate reader (BioTek, WI, USA) was used for kinetic analysis using excitation at 518 nm, emission at 545 nm, reads of 0.1 sec/well every minute at 25° C. for 1 h. Baseline fluorescence was determined from di-E-GSSG reactions without PDI and GSH. […]

Chain of PDIA1 (P07237 18-508): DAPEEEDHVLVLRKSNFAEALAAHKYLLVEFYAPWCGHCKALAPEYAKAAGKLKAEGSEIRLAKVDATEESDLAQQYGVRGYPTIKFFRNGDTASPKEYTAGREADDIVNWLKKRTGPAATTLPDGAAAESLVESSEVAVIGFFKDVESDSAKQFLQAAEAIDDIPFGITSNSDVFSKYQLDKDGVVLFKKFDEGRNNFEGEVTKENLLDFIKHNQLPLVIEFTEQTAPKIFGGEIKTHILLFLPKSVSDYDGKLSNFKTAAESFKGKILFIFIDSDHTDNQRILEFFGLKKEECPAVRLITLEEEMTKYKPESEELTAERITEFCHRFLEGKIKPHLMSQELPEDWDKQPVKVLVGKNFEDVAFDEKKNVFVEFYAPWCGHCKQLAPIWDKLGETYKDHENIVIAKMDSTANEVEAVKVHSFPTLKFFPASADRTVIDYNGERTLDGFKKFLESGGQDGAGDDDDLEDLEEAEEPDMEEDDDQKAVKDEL

NC(CC1CNc2ccccc21)C(=O)NCCCOc1ccc(N2C(=O)/C(=C/c3ccc([N+](=O)[O-])s3)SC2=S)cc1 (stereo not shown) [CCF642-34]
potency in restricting colony formation of RPMI-8226 compared to CD34+ HSPCs [1]: 20 fold
increase of reactive oxygen species (ROS) [2]: 4-6 fold
higher potency compared to CCF642 (MM1.S cells): ~2 fold
KI (inactivation) (PDIA1): 0.088 ± 0.0028 µM

Reference: patent US12649734B2, “Bioavailable protein disulfide isomerase inhibitors” (THE CLEVELAND CLINIC FOUNDATION, priority 2020, dated 2026)
